Experimental data reported in patent publication US6919330B2, “Formulations of drugs” (Laxdale Limited, priority 2002, dated 2005).

Assay: Plasma and red cell selenium levels in healthy controls and patient groups on drugs
Type: in vivo, human
Settings: schizophrenic patients on the drug, compared with the other groups
Excerpt: Here the selenium levels are expressed in μmol/litre and are shown as means plus or minus the Standard Error of the Mean (SEM)

With `CN1CCN(C2=Nc3cc(Cl)ccc3Nc3ccccc32)CC1` [clozapine] as the molecule, how does the selenium levels read?
Its selenium levels is “exceptionally low”.
